From patent publication US10681908B2, “Molecules having pesticidal utility, and intermediates, compositions, and processes, related thereto” (Dow AgroSciences LLC, priority 2016, dated 2020)
Like-named read-outs stand apart in the source and are kept apart here.

What was measured:
[1] = tested on: Beet Armyworm (Spodoptera exigua, LAPHEG); assay: Bioassay on Beet Armyworm (BAW), 128-well diet tray assay; assay type: in vivo; settings: for mortality at 50 µg/cm2: 168 h, 50 μg/cm^2 on artificial diet, second instar larvae, five to seven days, 25° C., read-out: BAW % Control (or Mortality) rating
How it was run: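 Mortality of second-instar larvae (one to five per well) was scored after five to seven days at 25 °C under 14:10 light-dark and averaged across eight wells. Each well's diet had received 50 μg/cm^2 test molecule from a 90:10 acetone-water solution, allowed to dry before infestation.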

[2] = tested on: Cabbage Looper (Trichoplusia ni, TRIPNI); assay: Bioassay on Cabbage Looper (CL), 128-well diet tray assay; assay type: in vivo; settings: for mortality at 50 µg/cm2: 168 h, 50 μg/cm^2 on artificial diet, second instar larvae, five to seven days, 25° C., read-out: CL % Control (or Mortality) rating
How it was run: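 Percent mortality, averaged over eight wells, scored after five to seven days at 25° C. under 14:10 light-dark. Each well held 1–5 second-instar larvae on artificial diet treated with 50 μg/cm^2 test molecule applied in 90:10 acetone-water and dried.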

[3] = 0.05 μg/cm^2, read-out: BAW Percent control (or mortality)
[4] = 0.5 μg/cm^2, read-out: BAW Percent control (or mortality)
[5] = 5 μg/cm^2, read-out: BAW Percent control (or mortality)
[6] = 0.05 μg/cm^2, read-out: CL Percent control (or mortality)
[7] = 0.5 μg/cm^2, read-out: CL Percent control (or mortality)
[8] = 5 μg/cm^2, read-out: CL Percent control (or mortality)

SMILES	mortality at 50 µg/cm2 [1] [%]	mortality at 50 µg/cm2 [2] [%]	also measured
C[C@H](CSCCC#N)NC(=O)c1ccc(/C(F)=C/C(c2cc(Cl)c(Cl)c(Cl)c2)C(F)(F)F)cc1C(F)(F)F (stereo partly drawn) [F128, N—((R)-1-((2-Cyanoethyl)thio)propan-2-yl)-4-((Z)-1,4,4,4-tetrafluoro-3-(3,4,5-trichlorophenyl)but-1-en-1-yl)-2-(trifluoromethyl)benzamide]	50 to 100	50 to 100	
C[C@H](CSCC(F)(F)F)NC(=O)c1ccc(/C(F)=C/C(c2cc(Cl)cc(Br)c2)C(F)(F)F)cc1C(F)(F)F (stereo partly drawn) [F64, 4-((Z)-3-(3-Bromo-5-chlorophenyl)-1,4,4,4-tetrafluorobut-1-en-1-yl)-N—((R)-1-((2,2,2-trifluoroethyl)thio)propan-2-yl)-2-(trifluoromethyl)benzamide]	50 to 100	50 to 100	
CCC(F)(F)C(/C=C(\F)c1ccc(C(=O)N[C@H](C)CSCC(F)(F)F)c(C(F)(F)F)c1)c1cc(Cl)c(Cl)c(Cl)c1 (stereo partly drawn) [F39, 4-((Z)-1,4,4-Trifluoro-3-(3,4,5-trichlorophenyl)hex-1-en-1-yl)-N—((R)-1-((2,2,2-trifluoroethyl)thio)propan-2-yl)-2-(trifluoromethyl)benzamide]	50 to 100	50 to 100	
C[C@H](CS(=O)(=O)CC(F)(F)F)NC(=O)c1ccc(/C(F)=C/C(c2ccc(Cl)c(Br)c2)C(F)(F)F)cc1C(F)(F)F (stereo partly drawn) [F79, 4-((Z)-3-(3-Bromo-4-chlorophenyl)-1,4,4,4-tetrafluorobut-1-en-1-yl)-N—((R)-1-((2,2,2-trifluoroethyl)sulfonyl)propan-2-yl)-2-(trifluoromethyl)benzamide]	50 to 100	50 to 100	
CCSC[C@@H](C)NC(=O)c1ccc(/C(F)=C/C(c2cc(Br)cc(Br)c2)C(F)(F)F)cc1C(F)(F)F (stereo partly drawn) [F40, 4-((Z)-3-(3,5-Dibromophenyl)-1,4,4,4-tetrafluorobut-1-en-1-yl)-N—((R)-1-(ethylthio)propan-2-yl)-2-(trifluoromethyl)benzamide]	50 to 100	50 to 100	
CSC(C)C(C)NC(=O)c1ccc(/C(F)=C/C(c2cc(Cl)c(Cl)c(Cl)c2)C(F)(F)F)cc1C(F)(F)F (centres unmarked) [F101, (Z)—N-(3-(methylthio)butan-2-yl)-4-(1,4,4,4-tetrafluoro-3-(3,4,5-trichlorophenyl)but-1-en-1-yl)-2-(trifluoromethyl)benzamide]	50 to 100	50 to 100	
C[C@H](CS(=O)(=O)CC(F)(F)F)NC(=O)c1ccc(/C(F)=C/C(c2cc(Cl)c(Cl)c(Cl)c2)C(F)(F)F)cc1Cl (stereo partly drawn) [F11, 2-Chloro-4-((Z)-1,4,4,4-tetrafluoro-3-(3,4,5-trichlorophenyl)but-1-en-1-yl)-N—((R)-1-((2,2,2-trifluoroethyl)sulfonyl)propan-2-yl)benzamide]	50 to 100	50 to 100	
O=C(NCC[S+]([O-])CCF)c1ccc(/C(F)=C/C(c2cc(Cl)c(Cl)c(Cl)c2)C(F)(F)F)cc1C(F)(F)F (centres unmarked) [F138, (Z)—N-(2-((2-Fluoroethyl)sulfinyl)ethyl)-4-(1,4,4,4-tetrafluoro-3-(3,4,5-trichlorophenyl)but-1-en-1-yl)-2-(trifluoromethyl)benzamide]	50 to 100	50 to 100	
C[C@H](CSCCC(F)(F)F)NC(=O)c1ccc(/C(F)=C/C(c2cc(Cl)c(Cl)c(Cl)c2)C(F)(F)F)cc1C(F)(F)F (stereo partly drawn) [F137, 4-((Z)-1,4,4,4-Tetrafluoro-3-(3,4,5-trichlorophenyl)but-1-en-1-yl)-2-(trifluoromethyl)-N—((R)-1-((3,3,3-trifluoropropyl)thio)propan-2-yl)benzamide]	50 to 100	50 to 100	
Cc1cc(/C(F)=C/C(c2cc(Cl)c(Cl)c(Cl)c2)C(C)(F)F)ccc1C(=O)N[C@H](C)CS(=O)(=O)CC(F)(F)F (stereo partly drawn) [F14, 2-Methyl-4-((Z)-1,4,4-trifluoro-3-(3,4,5-trichlorophenyl)pent-1-en-1-yl)-N—((R)-1-((2,2,2-trifluoroethyl)sulfonyl)propan-2-yl)benzamide]	50 to 100	50 to 100	mortality at 0.05 µg/cm2 [1, 3]: 69%; mortality at 0.5 µg/cm2 [1, 4]: 100%; mortality at 5 µg/cm2 [1, 5]: 100%; mortality at 0.05 µg/cm2 [2, 6]: 100%; mortality at 0.5 µg/cm2 [2, 7]: 100%; mortality at 5 µg/cm2 [2, 8]: 100%
C[C@H](CS(=O)(=O)CC(F)(F)F)NC(=O)c1ccc(/C(F)=C/C(c2cc(Cl)c(Cl)c(Cl)c2)C(C)(F)F)cc1C(F)(F)F (stereo partly drawn) [F16, 4-((Z)-1,4,4-Trifluoro-3-(3,4,5-trichlorophenyl)pent-1-en-1-yl)-N—((R)-1-((2,2,2-trifluoroethyl)sulfonyl)propan-2-yl)-2-(trifluoromethyl)benzamide]	50 to 100	50 to 100	mortality at 0.05 µg/cm2 [1, 3]: 100%; mortality at 0.5 µg/cm2 [1, 4]: 100%; mortality at 5 µg/cm2 [1, 5]: 100%; mortality at 0.05 µg/cm2 [2, 6]: 100%; mortality at 0.5 µg/cm2 [2, 7]: 100%; mortality at 5 µg/cm2 [2, 8]: 100%
C[C@H](CSCC(F)(F)F)NC(=O)c1ccc(/C(F)=C/C(c2cc(Cl)c(Cl)c(Cl)c2)C(F)(F)F)cc1Br (stereo partly drawn) [F7, 2-Bromo-4-((Z)-1,4,4,4-tetrafluoro-3-(3,4,5-trichlorophenyl)but-1-en-1-yl)-N—((R)-1-((2,2,2-trifluoroethyl)thio)propan-2-yl)benzamide]	50 to 100	50 to 100	mortality at 0.05 µg/cm2 ([1]; 0.05 μg/cm^2, Table CD2 comparative data, read-out: Percent control (or mortality) BAW): 0%; mortality at 0.5 µg/cm2 ([1]; 0.5 μg/cm^2, Table CD2 comparative data, read-out: Percent control (or mortality) BAW): 100%; mortality at 5 µg/cm2 ([1]; 5 μg/cm^2, Table CD2 comparative data, read-out: Percent control (or mortality) BAW): 100%; mortality at 0.05 µg/cm2 ([2]; 0.05 μg/cm^2, Table CD2 comparative data, read-out: Percent control (or mortality) CL): 0%; mortality at 0.5 µg/cm2 ([2]; 0.5 μg/cm^2, Table CD2 comparative data, read-out: Percent control (or mortality) CL): 56%; mortality at 5 µg/cm2 ([2]; 5 μg/cm^2, Table CD2 comparative data, read-out: Percent control (or mortality) CL): 100%
C[C@H](CSCC(F)(F)F)NC(=O)c1ccc(/C(F)=C/C(c2cc(Cl)c(Br)c(Cl)c2)C(F)(F)F)cc1C(F)(F)F (stereo partly drawn) [F24, 4-((Z)-3-(4-Bromo-3,5-dichlorophenyl)-1,4,4,4-tetrafluorobut-1-en-1-yl)-N—((R)-1-((2,2,2-trifluoroethyl)thio)propan-2-yl)-2-(trifluoromethyl)benzamide]	50 to 100	50 to 100	
C[C@H](CS(=O)(=O)CC(F)(F)F)NC(=O)c1ccc(/C(F)=C/C(c2cc(Cl)cc(C(C)(F)F)c2)C(F)(F)F)cc1C(F)(F)F (stereo partly drawn) [F120, 4-((Z)-3-(3-Chloro-5-(1,1-difluoroethyl)phenyl)-1,4,4,4-tetrafluorobut-1-en-1-yl)-N—((R)-1-((2,2,2-trifluoroethyl)sulfonyl)propan-2-yl)-2-(trifluoromethyl)benzamide]	50 to 100	50 to 100	
C[C@H](CS(=O)(=O)CC(F)(F)F)NC(=O)c1ccc(/C(F)=C/C(c2cc(Cl)cc(OC(F)(F)F)c2)C(F)(F)F)cc1C(F)(F)F (stereo partly drawn) [F110, 4-((Z)-3-(3-Chloro-5-(trifluoromethoxy)phenyl)-1,4,4,4-tetrafluorobut-1-en-1-yl)-N—((R)-1-((2,2,2-trifluoroethyl)sulfonyl)propan-2-yl)-2-(trifluoromethyl)benzamide]	50 to 100	50 to 100	
C[C@H](CS(C)(=O)=O)NC(=O)c1ccc(/C(F)=C/C(c2cc(Cl)c(Cl)c(Cl)c2)C(F)(F)F)cc1C(F)(F)F (stereo partly drawn) [F87, N—((R)-1-(methylsulfonyl)propan-2-yl)-4-((Z)-1,4,4,4-tetrafluoro-3-(3,4,5-trichlorophenyl)but-1-en-1-yl)-2-(trifluoromethyl)benzamide]	50 to 100	50 to 100	
